Source: ChEMBL document CHEMBL1149544, “R-(-)-N-alkyl-11-hydroxy-10-hydroxymethyl- and 10-methyl-aporphines as 5-HT1A receptor ligands” (Bioorg Med Chem Lett, 2007)
pKi: −log10 of the molar value.

Assays:
D(1A) dopamine receptor = D(1A) dopamine receptor (Rattus norvegicus, UniProt P18901); test: Displacement of [3H]SCH-23390 from rat dopamine D1 receptor
[1] = biological target: T1, 5-hydroxytryptamine receptor 1A (Rattus norvegicus, UniProt P19327); test: Displacement of [3H]8-OH-DPAT from rat 5HT1A receptor
T1 sequence (P19327 whole entry): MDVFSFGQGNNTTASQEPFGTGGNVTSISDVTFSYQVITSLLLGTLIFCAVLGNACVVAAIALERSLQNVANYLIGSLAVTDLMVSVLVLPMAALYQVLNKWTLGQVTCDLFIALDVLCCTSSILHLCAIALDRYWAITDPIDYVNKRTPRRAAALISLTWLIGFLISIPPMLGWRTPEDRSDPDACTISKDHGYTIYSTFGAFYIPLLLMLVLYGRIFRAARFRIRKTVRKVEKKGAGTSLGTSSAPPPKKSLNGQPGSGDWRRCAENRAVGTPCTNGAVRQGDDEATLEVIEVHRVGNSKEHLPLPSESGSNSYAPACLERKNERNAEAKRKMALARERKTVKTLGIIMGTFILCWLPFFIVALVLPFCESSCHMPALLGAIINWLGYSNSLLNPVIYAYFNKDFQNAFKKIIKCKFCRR

D(2) dopamine receptor = D(2) dopamine receptor (Rattus norvegicus, UniProt P61169); test: Displacement of [3H]nemonapride from rat dopamine D2 receptor
Chain of D(2) dopamine receptor (P61169 whole entry): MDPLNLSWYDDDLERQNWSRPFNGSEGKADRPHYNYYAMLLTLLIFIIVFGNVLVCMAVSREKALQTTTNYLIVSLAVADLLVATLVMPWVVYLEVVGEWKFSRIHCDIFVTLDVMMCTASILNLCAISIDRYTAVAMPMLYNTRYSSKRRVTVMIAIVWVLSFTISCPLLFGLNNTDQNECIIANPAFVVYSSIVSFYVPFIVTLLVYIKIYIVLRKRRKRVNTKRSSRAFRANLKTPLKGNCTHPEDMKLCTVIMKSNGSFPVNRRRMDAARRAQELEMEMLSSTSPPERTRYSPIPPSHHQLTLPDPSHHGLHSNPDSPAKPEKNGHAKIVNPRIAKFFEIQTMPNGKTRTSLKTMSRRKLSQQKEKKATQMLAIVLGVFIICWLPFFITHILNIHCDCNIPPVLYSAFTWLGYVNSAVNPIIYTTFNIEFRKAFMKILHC

[2] = biological target: 5-hydroxytryptamine receptor 2A (Rattus norvegicus, UniProt P14842); test: Displacement of [3H]ketanserin from rat 5HT2A receptor
Chain of 5-hydroxytryptamine receptor 2A (P14842 whole entry): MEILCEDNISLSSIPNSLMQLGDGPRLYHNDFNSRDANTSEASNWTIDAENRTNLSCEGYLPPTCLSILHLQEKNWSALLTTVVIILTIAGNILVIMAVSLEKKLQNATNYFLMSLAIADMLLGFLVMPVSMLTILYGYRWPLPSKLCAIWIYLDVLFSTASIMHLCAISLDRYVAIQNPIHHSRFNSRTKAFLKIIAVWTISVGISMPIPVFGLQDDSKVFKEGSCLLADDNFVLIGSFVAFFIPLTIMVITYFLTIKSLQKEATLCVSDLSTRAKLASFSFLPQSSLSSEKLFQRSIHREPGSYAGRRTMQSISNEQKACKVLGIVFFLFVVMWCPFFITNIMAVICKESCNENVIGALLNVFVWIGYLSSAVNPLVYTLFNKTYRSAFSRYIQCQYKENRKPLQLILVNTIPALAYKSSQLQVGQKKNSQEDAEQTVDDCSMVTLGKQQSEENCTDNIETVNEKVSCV

Rattus norvegicus = species on record: Rattus norvegicus; test: Selectivity for rat 5HT1A over rat 5HT2A

Chain of D(1A) dopamine receptor (P18901 whole entry): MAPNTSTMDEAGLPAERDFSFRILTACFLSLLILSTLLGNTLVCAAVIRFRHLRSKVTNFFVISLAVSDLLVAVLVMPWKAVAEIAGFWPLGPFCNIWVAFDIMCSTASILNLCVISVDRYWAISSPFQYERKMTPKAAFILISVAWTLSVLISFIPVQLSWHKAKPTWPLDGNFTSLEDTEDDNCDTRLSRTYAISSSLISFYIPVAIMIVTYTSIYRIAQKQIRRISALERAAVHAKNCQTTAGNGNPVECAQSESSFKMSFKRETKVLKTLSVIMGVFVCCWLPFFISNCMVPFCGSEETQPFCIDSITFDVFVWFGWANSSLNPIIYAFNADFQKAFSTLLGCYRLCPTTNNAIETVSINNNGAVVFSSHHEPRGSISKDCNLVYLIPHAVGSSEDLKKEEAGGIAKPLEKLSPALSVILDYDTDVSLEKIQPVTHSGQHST

In the case of `CCCN1CCc2cc(OC)cc3c2[C@H]1Cc1ccc(C)c(O)c1-3`, the pKi (D(1A) dopamine receptor) was 5.55, the pKi [1] was 6.32 and the pKi (D(2) dopamine receptor) was 5.87.

Work on `Cc1ccc2c(c1O)-c1cccc3c1[C@@H](C2)N(C)CC3` yielded a pKi (D(1A) dopamine receptor) of 5.02, a pKi [1] of 6.67 and a pKi (D(2) dopamine receptor) of 4.94.

With `CCCN1CCc2cccc3c2[C@H]1Cc1ccc(CO)c(O)c1-3` the pKi (D(1A) dopamine receptor) was 5.70, the pKi [1] was 6.43 and the pKi (D(2) dopamine receptor) was 5.22.

`COc1cc2c3c(c1)-c1c(ccc(C)c1O)C[C@H]3N(C)CC2` gave a pKi [2] of 6.57, a pKi (D(1A) dopamine receptor) of 5.75 and a pKi [1] of 7.67. The Ratio Ki (Rattus norvegicus) was 108 and the pKi (D(2) dopamine receptor) was 5.42.

Work on `CN1CCc2cccc3c2[C@H]1Cc1ccc(CO)c(O)c1-3` yielded a pKi [2] of 6.86, a pKi (D(1A) dopamine receptor) of 5.86 and a pKi [1] of 8.62. The Ratio Ki (Rattus norvegicus) was 57 and the pKi (D(2) dopamine receptor) was 5.15.
